The compounds below were run against Platelet-activating factor receptor (Oryctolagus cuniculus) (assay: In vitro inhibition of PAF-induced aggregation of rabbit washed platelets.).

Row | IC50 [nM] | Compound
1 | 3.2 | CCOC(=O)C1=C(c2ccc(-n3c(C)nc4cnccc43)cc2)N=C(C)C(C(=O)Nc2ccccn2)C1c1cccc2c1OCO2 (stereo unspecified)
2 | 580 | CCOC(=O)C1=C(c2ccc(-n3cnc(C)c3)cc2)N=C(C)C(C(=O)Nc2ccccn2)C1c1ccccc1Cl (stereo unspecified)
3 | 5.9 | CCOC(=O)C1=C(c2ccc(-n3c(C)nc4c(C)nc(C)cc43)cc2)N=C(C)C(C(=O)Nc2ccccn2)C1c1ccccc1Cl (stereo unspecified)
4 | 25 | CCOC(=O)C1=C(c2ccc(-n3c(C)nc4cnccc43)cc2)N=C(C)C(C(=O)Nc2ccccn2)C1c1ccc(C#N)cc1 (stereo unspecified)
5 | 30 | CCOC(=O)C1=C(c2ccc(-n3c(C(F)(F)F)nc4cnccc43)cc2)N=C(C)C(C(=O)Nc2ccccn2)C1c1ccccc1Cl (stereo unspecified)
6 | 1.6 | CCOC(=O)C1=C(c2ccc(-n3c(C)nc4cnccc43)cc2)N=C(C)C(C(=O)OC)C1c1ccccc1Cl (stereo unspecified)
7 | 12 | CCOC(=O)C1=C(c2ccc(-n3c(C)nnc3C)cc2)N=C(C)C(C(=O)Nc2ccccn2)C1c1ccccc1Cl (stereo unspecified)
8 | 2.3 | CCOC(=O)C1=C(c2ccc(-n3c(C)nc4cnccc43)cc2)N=C(C)C(C(=O)Nc2ccccn2)C1c1ccccc1OC(F)(F)F (stereo unspecified)
9 | 13 | CCOC(=O)C1=C(c2ccc(-n3c(C)nc4cnccc43)cc2)N=C(C)C(C(=O)Nc2ccccn2)C1c1cccnc1Cl (stereo unspecified)
10 | 5 | CCOC(=O)C1=C(c2ccc(-c3c(C)nc4sccn34)cc2)NC(C)=C(C(=O)Nc2ccccn2)C1c1ccccc1Cl (stereo unspecified)
11 | 190 | CCCCc1nc2cnccc2n1-c1ccc(C2=C(C(=O)OCC)C(c3ccccc3Cl)C(C(=O)Nc3ccccn3)C(C)=N2)cc1 (stereo unspecified)
12 | 33 | CCOC(=O)C1=C(c2ccc(-n3c(C)nc4cnccc43)cc2)N=C(C)C(C(=O)Nc2ccccn2)C1c1cccnc1 (stereo unspecified)
13 | 13 | CCOC(=O)C1=C(c2ccc(-n3cc(C)nc3C)cc2)N=C(C)C(C(=O)Nc2ccccn2)C1c1ccccc1Cl (stereo unspecified)
14 | 5.6 | CCOC(=O)C1=C(c2ccc(-n3c(C)nc4cnccc43)cc2)N=C(C)C(C(N)=O)C1c1ccccc1Cl (stereo unspecified)
15 | 23 | CCOC(=O)C1=C(c2ccc(-n3ccnc3C)cc2)N=C(C)C(C(=O)Nc2ccccn2)C1c1ccccc1Cl (stereo unspecified)
16 | 3.2 | CCOC(=O)C1=C(c2ccc(-n3c(C)nc4cnccc43)cc2)N=C(C)C(C(=O)NC(C)(C)C)C1c1ccccc1Cl (stereo unspecified)
17 | 14 | CCOC(=O)C1=C(c2ccc(-n3c(C)nc4cnccc43)cc2)N=C(C)C(C(=O)Nc2ccccn2)C1c1ccccn1 (stereo unspecified)
18 | 3.1 | CCOC(=O)C1=C(c2ccc(-n3c(C)nc4cnccc43)cc2)N=C(C)C(C(=O)Nc2ccccn2)C1c1csc2ccccc12 (stereo unspecified)
19 | > 10000 | CCOC(=O)C1=C(c2ccc(-n3nc(C)cc3C)cc2)N=C(C)C(C(=O)Nc2ccccn2)C1c1ccccc1Cl (stereo unspecified)
20 | 14 | CCOC(=O)C1=C(c2ccc(-n3c(C)nc4cnccc43)cc2)N=C(C)C(C(=O)O)C1c1ccccc1Cl (stereo unspecified)
21 | 2.1 | CCOC(=O)C1=C(c2ccc(-c3c(C)nc4ccccn34)cc2)N=C(C)C(C(=O)Nc2ccccn2)C1c1ccccc1Cl (stereo unspecified)
22 | 28 | CCOC(=O)C1=C(c2ccc(-n3c(C)nc4cccnc43)cc2)N=C(C)C(C(=O)Nc2ccccn2)C1c1ccccc1Cl (stereo unspecified)
23 | 22 | CCOC(=O)C1=C(c2ccc(-n3c(C)nc4ccncc43)cc2)N=C(C)C(C(=O)Nc2ccccn2)C1c1ccccc1Cl (stereo unspecified)
24 | 200 | CCOC(=O)C1=C(c2ccc(-c3ocnc3C)cc2)N=C(C)C(C(=O)Nc2ccccn2)C1c1ccccc1Cl (stereo unspecified)
25 | 1.3 | CCOC(=O)C1=C(c2ccc(-n3c(C)nc4cnccc43)cc2)N=C(C)C(C(=O)OC(C)(C)C)C1c1ccccc1Cl (stereo unspecified)
26 | 270 | CCOC(=O)C1=C(c2ccc(-n3c(C)nc4c(OC)ncnc43)cc2)N=C(C)C(C(=O)Nc2ccccn2)C1c1ccccc1Cl (stereo unspecified)

— BindingDB's records for doi:10.1021/jm00095a005 (Pfizer, 1992)
